# Measurements reported in US4540581A, “Topical nonsteroidal anti-inflammatory compositions and uses” (Bristol-Myers Company, priority 1984, dated 1985).
# Where “and” joins values, the source holds several entries; their conditions need not be identical. Equal values may be shown once. Where a name gives a salt, the structure may show the parent alone.
# Assays:
# [1] = test system: Croton Oil-Induced Mouse Ear Edema; assay: Croton oil-induced ear edema in mice (Example 1); format: in vivo; settings: for Topical Anti-Inflammatory Activity, Croton Oil Assay (Edema): summary grade of % inhibition; for % Inhibition of Croton Oil-Induced Mouse Ear Edema: topical, 6 h, mean of 10 to 15 animals; for Reduction in ear edema in the croton oil assay (in words): zinterol at 1.6 and 0.2 w/v percent, bitolterol at 1.6 w/v percent
# Experimental: In the croton oil assay, (which is a standard test, which is fully described in Tonelli et al, Endocrinology, vol. 77, pp. 625-634, 1965, and which is hereby incorporated herein by reference) topical application of four % croton oil in ethanol (v/v) to the ears of mice causes intercellular edema, vasodilation, and polymorphonuclear leucocyte infiltration into the dermis, leading to an increase over normal ear weight of about 70 to 100%. The inflammatory response is nearly maximal by 6 hours. In the croton oil tests, four volume % croton oil in ethanol was applied to the inner aspect of both ears of each test mouse, and various test materials in vehicle systems were applied to the outer aspect of the ears immediately following croton oil application. Control animals were exposed either to croton oil alone or to croton oil followed by the vehicle alone.
# Six hours after exposure to croton oil and/or test material, animals were sacrificed; and punch biopsies of the ears were weighed and compared to the respective vehicle control.
# Compounds were tested in simple solutions, including dimethylacetamide/acetone/ethanol (i.e., DMAC/A/E v/v 40/30/30) and N-methyl pyrrolidone/ethanol (NMP/E v/v 50/50). Comparative controls were chosen based on their known activity in each of the three above-described animal assays and included in all three tests (in Examples 1, 2 and 3) hydrocortisone valerate (HCV) in the croton oil and oxazolone assays, indomethacin (which is a potent aspirin-like nonsteroidal anti-inflammatory agent) in the UVB test, and salbutamol (a β2 agonist, discussed above in the Background of the Invention).
# (§1) The percent inhibition of induced mouse ear edema (or erythema) for each of the three models (in Examples 1, 2 and 3) is calculated: [formula]
# [2] = test system: UVB-Induced Erythema in Guinea Pig; assay: UVB-induced erythema in guinea pigs (Example 3); format: in vivo; settings: for Topical Anti-Inflammatory Activity, UV-B Assay (Erythema): summary grade of % inhibition; for Activity in the UVB assay (in words): zinterol 3 and 1.6 weight percent, indomethacin 1 weight percent
# Experimental: as §1
# In the UVB test, cutaneous erythema is induced in guinea pigs.This test is a standard test widely used for testing anti-inflammatory agents and is fully described in K. F. Swingle, "Evaluation for Anti-Inflammatory Activity", in Anti-Inflammatory Agents, vol. 2, ed. by Scherrer and Whitehouse, pp. 34-122, London: Academic Press, 1974, hereby incorporated herein by reference. In the UVB model, the test material was applied topically to the irradiated sites immediately following exposure to UVB. Erythema was scored on a 0 to 4 scale, 3 and 6 hours after irradiation.
# [3] = test system: Oxazolone-Induced Edema in Mouse Ear; assay: Oxazolone-induced ear edema in mice (Example 2); format: in vivo; settings: for Topical Anti-Inflammatory Activity, Oxazolone Assay (Edema): summary grade of % inhibition; for % Inhibition of Oxazolone-Induced Edema in Mouse Ear: topical, mean of 10 to 15 animals
# Source text: Oxazolone-induced contact sensitization in mice is characterized by edema and cellular infiltration, primarily of the monocyte type, with close to 100% increase in the mouse ear weight.
# [4] = test system: croton oil-induced ear edema in mice; assay: Croton oil-induced ear edema in mice, compounds IV and V vs zinterol (Example 4); format: in vivo, Swiss albino mice; settings: for % Reduction of Ear Edema Weight as Compared to Control Ears / Anti-inflammatory activity in croton oil-induced ear edema (in words): topical; for % Reduction of Ear Edema Weight as Compared to Control Ears: 6 h, single study; for % Reduction of Ear Edema Weight as Compared to Control Ears, Mean ± S.D.: mean of studies; for Anti-inflammatory activity in croton oil-induced ear edema (in words): NMP/ETOH
# Experimental: In these tests, the anti-inflammatory effect of these three β2 agonists when applied topically to the croton oil-induced ear edema in mice was investigated. In these tests, 50 μl of 4 weight percent croton oil in ethanol was applied to the inner aspects of the right and the left ears of Swiss albino mice, followed immediately by 25 μof suspensions of 0.02, 0.2, and 0.8 weight percent of compound IV and compound V in N-methylpyrrolidone/Ethyl alcohol (i.e., NMP/ETOH) applied to the outer aspect of each ear. Croton oil treated and nontreated control groups were included. These control groups are included in the data as described hereinbefore.
# Six hours later, the animals were sacrificed with CO2 gas, and a 5/16 inch punch biopsy of each ear was taken and weighed immediately.
# The anti-inflammatory effects for the test agents were assessed by a comparison of the biopsy weights of the test and control groups.
# [5] = Solubility of active ingredient in vehicles; format: physicochemical
# [6] = 1.6 w/v %, in NMP/ETOH (50/50), salbutamol in Ethanol/H2O (50/50)
# [7] = 0.02 % weight/volume in NMP/ETOH
# [8] = 0.2 % weight/volume in NMP/ETOH
# [9] = 0.8 % weight/volume in NMP/ETOH
# [10] = 3 w/v %, N-methyl 2-pyrrolidone/ethanol (50/50), 3 h, salbutamol in Ethanol/H2O or NMP/H2O
# [11] = 3 w/v %, N-methyl 2-pyrrolidone/ethanol (50/50), 6 h, salbutamol in Ethanol/H2O or NMP/H2O
# [12] = 3 w/v %, in N-methylpyrrolidone:ethanol (1:1)
# [13] = 0.2 w/v %, in DMAC/acetone/ethanol (40:30:30)
# [14] = 1.6 w/v %, in DMAC/acetone/ethanol (40:30:30)
smiles,measurement,setting,value
"COc1ccc2c(c1)c(CC(=O)O)c(C)n2C(=O)c1ccc(Cl)cc1 [Indomethacin, indomethacin]","Topical Anti-Inflammatory Activity, Croton Oil Assay (Edema)",[1],+ (+ = Slight (30-44))
same,% Change in UVB-Induced Erythema in Guinea Pig,"[2]; 1%, DMAC/acetone/ethanol (40/30/30), 3 h",72% and 54% and 82%
same,% Change in UVB-Induced Erythema in Guinea Pig,"[2]; 1%, DMAC/acetone/ethanol (40/30/30), 6 h",43% and 48% and 54%
same,% Change in UVB-Induced Erythema in Guinea Pig,"[2]; 1%, N-methyl 2-pyrrolidone/ethanol (50/50), 3 h",100% and 93% and 91%
same,% Change in UVB-Induced Erythema in Guinea Pig,"[2]; 1%, N-methyl 2-pyrrolidone/ethanol (50/50), 6 h",74% and 85% and 87%
same,"Topical Anti-Inflammatory Activity, UV-B Assay (Erythema)",[2],+++ (+++ = high (60%))
same,Activity in the UVB assay (in words),[2],good to very good activity
same,"Topical Anti-Inflammatory Activity, Oxazolone Assay (Edema)",[3],+ (+ = Slight (30-44))
"CC(C)(Cc1ccccc1)NCC(O)c1ccc(O)c(NS(C)(=O)=O)c1 (centres unmarked) [Zinterol, 2-hydroxy-5'-[1-hydroxy-2-(2-methyl-1-phenyl-2-propylamino)ethyl]methanesulfonanilide]",Topical cutaneous anti-inflammatory activity in the croton oil assay (in words),[1]; 1.6 w/v %,high topical cutaneous anti-inflammatory activity
same,% Inhibition of Croton Oil-Induced Mouse Ear Edema,"[1]; 1.6 w/v %, in DMAC/Acetone/ETOH, salbutamol in Ethanol/H2O (50/50)",69% and 50% and 81% and 66% and 63% and 48% and 45%
same,% Inhibition of Croton Oil-Induced Mouse Ear Edema,[1]; [6],69% and 63% and 70% and 48% and 73%
same,"Topical Anti-Inflammatory Activity, Croton Oil Assay (Edema)",[1],+++ (+++ = high (60%))
same,Reduction in ear edema in the croton oil assay (in words),[1],good to moderate reductions in ear edema
same,% Reduction of Ear Edema Weight as Compared to Control Ears,[4]; [7],14.2% and 23.6%
same,"% Reduction of Ear Edema Weight as Compared to Control Ears, Mean ± S.D.",[4]; [7],18.9 ± 6.6%
same,% Reduction of Ear Edema Weight as Compared to Control Ears,[4]; [8],39.5% and 66.2% and 46.6%
same,"% Reduction of Ear Edema Weight as Compared to Control Ears, Mean ± S.D.",[4]; [8],50.8 ± 13.8%
same,% Reduction of Ear Edema Weight as Compared to Control Ears,[4]; [9],68.2% and 56.6%
same,"% Reduction of Ear Edema Weight as Compared to Control Ears, Mean ± S.D.",[4]; [9],62.4 ± 8.2%
same,% Change in UVB-Induced Erythema in Guinea Pig,"[2]; 1.6 w/v %, N-methyl 2-pyrrolidone/ethanol (50/50), 3 h",9%
same,% Change in UVB-Induced Erythema in Guinea Pig,"[2]; 1.6 w/v %, N-methyl 2-pyrrolidone/ethanol (50/50), 6 h",26%
same,% Change in UVB-Induced Erythema in Guinea Pig,[2]; [10],48% and 75%
same,% Change in UVB-Induced Erythema in Guinea Pig,[2]; [11],18% and 25%
same,"Topical Anti-Inflammatory Activity, UV-B Assay (Erythema)",[2],+ (+ = Slight (30-44))
same,Activity in the UVB assay (in words),[2],slight to moderate activity with no consistent dose effect
same,Reduction in ear edema in the oxazolone assay (in words),[3]; 3 and 1.6 weight percent,slight reduction in ear edema with no dose-related effect
same,% Inhibition of Oxazolone-Induced Edema in Mouse Ear,[3]; [12],39%
same,"Topical Anti-Inflammatory Activity, Oxazolone Assay (Edema)",[3],+ (+ = Slight (30-44))
"Cc1ccc(C(=O)Oc2ccc(C(O)CNC(C)(C)C)cc2OC(=O)c2ccc(C)cc2)cc1 (centres unmarked) [Bitolterol, bitolterol]",% Inhibition of Croton Oil-Induced Mouse Ear Edema,"[1]; 0.2 w/v %, in NMP/ETOH (50/50)",42% and 25% and 34%
same,% Inhibition of Croton Oil-Induced Mouse Ear Edema,[1]; [6],61%
same,Reduction in ear edema in the croton oil assay (in words),[1],good to moderate reductions in ear edema
CC(C)(Cc1c[nH]c2ccccc12)NCC(O)c1ccc(O)c(NS(C)(=O)=O)c1 (centres unmarked) [Compound V],% Reduction of Ear Edema Weight as Compared to Control Ears,[4]; [7],29.9%
same,% Reduction of Ear Edema Weight as Compared to Control Ears,[4]; [8],53.5%
same,% Reduction of Ear Edema Weight as Compared to Control Ears,[4]; [9],69.9%
same,Anti-inflammatory activity in croton oil-induced ear edema (in words),[4],comparable to that of zinterol
"CCCCC(=O)O[C@]1(C(=O)CO)CC[C@H]2[C@@H]3CCC4=CC(=O)CC[C@]4(C)[C@H]3[C@@H](O)C[C@@]21C [HCV, hydrocortisone valerate]",% Inhibition of Croton Oil-Induced Mouse Ear Edema,"[1]; 0.2 w/v %, in DMAC/Acetone/ETOH, salbutamol in Ethanol/H2O (50/50), minus = potentiation",25% and 38% and 34%
same,% Inhibition of Croton Oil-Induced Mouse Ear Edema,"[1]; 0.2 w/v %, in NMP/ETOH (50/50)",71% and 62% and 64% and 67% and 73%
same,% Inhibition of Croton Oil-Induced Mouse Ear Edema,[1]; [6],70% and 71%
same,"Topical Anti-Inflammatory Activity, Croton Oil Assay (Edema)",[1],+++ (+++ = high (60%))
same,% Inhibition of Oxazolone-Induced Edema in Mouse Ear,[3]; [13],16%
same,% Inhibition of Oxazolone-Induced Edema in Mouse Ear,[3]; [14],36% and 27%
same,% Inhibition of Oxazolone-Induced Edema in Mouse Ear,[3]; [12],39%
same,"Topical Anti-Inflammatory Activity, Oxazolone Assay (Edema)",[3],+ (+ = Slight (30-44))
CC(Cc1c[nH]c2ccccc12)NCC(O)c1ccc(O)c(NS(C)(=O)=O)c1 (centres unmarked) [Compound IV],"% Reduction of Ear Edema Weight as Compared to Control Ears, Mean ± S.D.",[4]; [7],18.1 ± 10.6%
same,% Reduction of Ear Edema Weight as Compared to Control Ears,[4]; [8],32.9% and 48.7% and 49.4%
same,"% Reduction of Ear Edema Weight as Compared to Control Ears, Mean ± S.D.",[4]; [8],43.7 ± 9.3%
same,% Reduction of Ear Edema Weight as Compared to Control Ears,[4]; [9],61.6% and 53.4%
same,"% Reduction of Ear Edema Weight as Compared to Control Ears, Mean ± S.D.",[4]; [9],57.5 ± 5.8%
same,Anti-inflammatory activity in croton oil-induced ear edema (in words),[4],comparable to that of zinterol
"CC(C)(C)NCC(O)c1ccc(O)c(CO)c1 (centres unmarked) [Salbutamol, salbutamol]","Topical Anti-Inflammatory Activity, Croton Oil Assay (Edema)",[1],+ (+ = Slight (30-44))
same,% Change in UVB-Induced Erythema in Guinea Pig,"[2]; 1.6 w/v %, DMAC/acetone/ethanol (40/30/30), 3 h, salbutamol in Ethanol/H2O or NMP/H2O",9%
same,% Change in UVB-Induced Erythema in Guinea Pig,"[2]; 1.6 w/v %, DMAC/acetone/ethanol (40/30/30), 6 h, salbutamol in Ethanol/H2O or NMP/H2O",+4%
same,% Change in UVB-Induced Erythema in Guinea Pig,[2]; [10],42% and 45%
same,% Change in UVB-Induced Erythema in Guinea Pig,[2]; [11],32% and 25%
same,"Topical Anti-Inflammatory Activity, UV-B Assay (Erythema)",[2],+ (+ = Slight (30-44))
same,% Inhibition of Oxazolone-Induced Edema in Mouse Ear,[3]; [13],-1% and -9%
same,% Inhibition of Oxazolone-Induced Edema in Mouse Ear,[3]; [14],2% and 0%
same,% Inhibition of Oxazolone-Induced Edema in Mouse Ear,"[3]; 1.6 w/v %, in N-methylpyrrolidone:ethanol (1:1)",21% and 28%
same,% Inhibition of Oxazolone-Induced Edema in Mouse Ear,[3]; [12],31%
same,"Topical Anti-Inflammatory Activity, Oxazolone Assay (Edema)",[3],+ (+ = Slight (30-44))
CC(C)(Cc1ccccc1)NCC(O)c1ccc(O)c(NS(C)(=O)=O)c1 (centres unmarked) [zinterol hydrochloride],solubility,"[5]; organic solvent or mixture, cream vehicle, read-out: Amount that will dissolve in creams",≤ 7000 µg/mL
same,Solubility (in words),[5]; water,water soluble
